Patent US20250213587A1, “ITK INHIBITORS FOR INCREASING TH1 CELL ACTIVITY” (Corvus Pharmaceuticals, Inc., priority 2022, published 2025)
“Also recorded” adds a separate entry of the source.

Assays:
[1] = system: Th1, Th17, CD4+ effector cells, eosinophils; assay: Blood and tumor cell changes in treated lymphoma patients; format: in vivo, human
[2] = Glutathione reactivity assay; format: physicochemical; conditions: 37° C.
Method: The reactivity of acrylamides with glutathione was determined by measuring the disappearance of starting material and appearance of the adduct with glutathione in HPLC-MS spectra as a function of time. All the stock solutions and solvents were bubbled with nitrogen and all reactions were run under nitrogen at 37° C. A 250 μL volume of 20 mM test compound in DMSO was mixed with 250 μL of 2.0 mM indoprofen (used as internal standard) in DMSO and 4.5 mL of 11.1 mM glutathione in 100 mM potassium phosphate buffer (pH 7.4). Each reaction contained 1 mM test compound, 0.1 mM indoprofen, and 10 mM glutathione in 100 mM potassium phosphate buffer and 10% DMSO. The reaction mixture was stirred at 37° C. for 5 hours and sampled for HPLC-MS analysis every hour. The reaction product, internal standard and starting materials were separated by liquid chromatography using an Agilent Eclipse XBD-C18 column (4.6×150 mm, 3.5 um) and quantified by UV absorption. The mobile phase consisted of solvent A (water) and solvent B (acetonitrile), employing a gradient of 10% to 95% solvent B over 10 min.

[3] = system: IL-2 secretion by Jurkat T cells; assay: Inhibition of IL-2 production in Jurkat cells; format: cell-based; conditions: Homo sapiens, washout, anti-CD3 18 hours, 15 determinations
Method: Jurkat cells (0.25×10^6) in Dulbecco's Modified Eagle's medium (Gibco) supplemented with 5% FBS were seeded in each well of a 96 well MultiScreenR HV filter plate (EMD Millipore) placed on top of a 96 well collection plate. CPI 818 was serially diluted in DMSO and added to the culture. After a 2-hour incubation at 37° C. the plates were centrifuged (188×g for 15 seconds) to remove the inhibitor-containing medium from the filter plate. Cells were washed twice by resuspending with 200 μL of medium per well and centrifuged. Cells in each well were then resuspended with 1.25×10^6 (50 μL) of Dynabeads CD3 (Life Technologies) and incubated for 18 hours at 37° C. Conditioned media was collected by centrifugation (188×g for 1 min). Human IL-2 concentration was measured with the AlphaLISA human IL2 Kit (PerkinElmer) and data collected on an Envision Plate Reader (PerkinElmer). Data were analyzed and graphed using GraphPad Prism version b7.0b. Technical duplicates of the concentration response were collected at each determination.

[4] = system: MRL lymphoproliferation strain mice; assay: MRL/lpr lupus model; conditions: mouse, in vivo
ITK = target: T1, ITK (Homo sapiens, UniProt Q08881); assay: Dialysis assay; format: biochemical; conditions: 24 h dialysis
T1 sequence (Q08881 1-620): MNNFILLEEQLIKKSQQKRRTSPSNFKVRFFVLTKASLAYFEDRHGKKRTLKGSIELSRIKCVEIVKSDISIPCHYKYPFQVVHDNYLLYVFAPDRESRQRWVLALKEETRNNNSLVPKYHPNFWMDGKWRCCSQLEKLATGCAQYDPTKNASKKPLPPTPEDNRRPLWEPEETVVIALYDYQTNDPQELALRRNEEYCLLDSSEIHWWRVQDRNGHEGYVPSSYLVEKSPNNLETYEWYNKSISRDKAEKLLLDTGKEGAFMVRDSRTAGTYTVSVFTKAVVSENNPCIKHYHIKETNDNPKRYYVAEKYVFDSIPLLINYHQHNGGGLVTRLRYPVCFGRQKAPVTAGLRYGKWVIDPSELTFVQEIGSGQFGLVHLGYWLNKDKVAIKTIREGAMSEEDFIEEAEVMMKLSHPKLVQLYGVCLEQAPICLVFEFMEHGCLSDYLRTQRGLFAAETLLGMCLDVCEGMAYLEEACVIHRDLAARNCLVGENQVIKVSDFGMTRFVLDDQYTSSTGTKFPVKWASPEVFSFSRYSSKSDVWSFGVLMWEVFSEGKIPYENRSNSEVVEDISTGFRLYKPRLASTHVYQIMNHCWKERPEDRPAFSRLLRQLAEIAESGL
Method: Dialysis was performed at room temperature against the same buffer for 24 hours in a Slide-A-Lyzer dialysis device (10 kDa MWCO) with three changes of the dialysis buffer giving a nominal final dialysis factor of 8×10^6. Un-dialyzed control samples incubated in parallel for 24 hours. ITK activity was measured following dialysis in a continuous sampling format using the microfluidic assay and 300 μM ATP and 2 μM Scrtide peptide substrate. The enzymatic velocity of treated samples was normalized to the appropriate control rate and expressed as a percent.

human CD4 T cells = assay: T cell exhaustion markers; format: cell-based

stability of acrylamide in presence of glutathione ([2]; 3 h): minimal loss
loss in presence of glutathione ([2]; physiological glutathione, 5 h): 4%
IC50 [3]: 0.136 µM
ITK activity after extensive dialysis (ITK): kinase activity was not recovered
ITK activity after extensive dialysis (ITK; listed as CP-818): remained inhibited
SMILES: C=CC(=O)N1CCCN(C(=O)c2cc(Sc3cnc(NC(=O)C4CC4)s3)c(C)cc2OC)C[C@H]1C [CPI-818]
CD4+ effector cells ([1]; blood and tumor, 200 mg BID): increases
Th17 pro-inflammatory cells ([1]; lymphoma patient): decrease
Th1 cells ([1]; lymphoma patient, blood/tumor): increases
eosinophils ([1]; patient on therapy): decreased while on therapy; also recorded: marked reduction
lymphadenopathy [4]: inhibits
proteinuria [4]: inhibits
T cell exhaustion: granzyme B and IFNγ levels (human CD4 T cells): reverses T cell exhaustion
LAG3, TIGIT and PD-1 (human CD4 T cells; various concentrations): downregulate biomarkers of T cell exhaustion
